Measured values from PubChem BioAssay (NCI).
“And” between values parts separate entries of the source, which are not always exact repeats. Equal entries are not always repeated.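 Where inhibition never reached the appropriate level, the endpoint shown equals the highest concentration tested. Otherwise, values were interpolated linearly from a five-concentration, 48-hour dose response in 96-well plates. The concentration for 50% growth inhibition is given as GI50. TGI: concentration producing complete growth inhibition.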

Assays:
Experiment in all cases: growth of human tumour cells (NCI), 48 h
SF-539 CNS = system: SF-539 CNS
SN12C renal = system: SN12C renal
COLO 205 colon = system: COLO 205 colon
EKVX NSCLC = system: EKVX NSCLC
NCI-H522 lung = system: NCI-H522 lung
SK-MEL-2 melanoma = system: SK-MEL-2 melanoma
SNB-75 CNS = system: SNB-75 CNS
UACC-62 melanoma = system: UACC-62 melanoma
HOP-92 NSCLC = system: HOP-92 NSCLC
HL-60(TB) leukemia = system: HL-60(TB) leukemia

For `CSC(=S)N/N=C(\C)c1cccc(C)n1`, which TGI (SF-539 CNS) is on record?
The TGI was 7.34 µM.

What about the TGI (SN12C renal) of the same compound?
The TGI was 21.9 µM.

And the TGI (COLO 205 colon)?
Its TGI is 2.82 µM.

What about the TGI (EKVX NSCLC) of the same compound?
Its TGI is > 43.3 µM.

What about the TGI (NCI-H522 lung) of the same compound?
The TGI was 3.01 µM.

And the TGI (SK-MEL-2 melanoma)?
The TGI was 16.5 µM.

What about the TGI (SNB-75 CNS) of the same compound?
The TGI was 13.6 µM.

And the TGI (UACC-62 melanoma)?
Its TGI is 3.67 µM.

What about the TGI (HOP-92 NSCLC) of the same compound?
Its TGI is 13.9 µM.

And the TGI (HL-60(TB) leukemia)?
Its TGI is 3.07 µM.

With `CCOc1nc(N)nc(C)c1N=Nc1ccc(Cl)cc1` as the compound, how does the TGI (SF-539 CNS) read?
Its TGI is > 100 µM.

What about the TGI (SN12C renal) of the same compound?
Its TGI is 86.4 µM.

What about the TGI (COLO 205 colon) of the same compound?
The TGI was > 100 µM.

What about the TGI (EKVX NSCLC) of the same compound?
The TGI was > 100 µM.

What about the TGI (NCI-H522 lung) of the same compound?
Its TGI is > 100 µM.

And the TGI (SK-MEL-2 melanoma)?
The TGI was > 100 µM.

And the TGI (SNB-75 CNS)?
The TGI was > 100 µM.

What about the TGI (UACC-62 melanoma) of the same compound?
The TGI was > 100 µM.

And the TGI (HOP-92 NSCLC)?
Its TGI is 88 µM.

What about the TGI (HL-60(TB) leukemia) of the same compound?
The TGI was > 100 µM.

Which results are given for `COC(=O)c1nc(-c2ccccc2)oc1S(=O)(=O)n1nc(C)cc1N`?
GI50 (SF-539 CNS): 14.4 µM; TGI (SF-539 CNS): 27.7 µM; GI50 (SN12C renal): 5.64 µM; TGI (SN12C renal): 19.7 µM; GI50 (COLO 205 colon): 2.11 µM; TGI (COLO 205 colon): 3.92 µM; GI50 (EKVX NSCLC): 16.7 µM; TGI (EKVX NSCLC): 43.9 µM; GI50 (NCI-H522 lung): 2.06 µM; TGI (NCI-H522 lung): 4.06 µM; GI50 (SK-MEL-2 melanoma): 13.7 µM; TGI (SK-MEL-2 melanoma): 30.5 µM; GI50 (SNB-75 CNS): 13.2 µM; TGI (SNB-75 CNS): 26.6 µM; GI50 (UACC-62 melanoma): 13.7 µM; TGI (UACC-62 melanoma): 28.1 µM; GI50 (HOP-92 NSCLC): 1.73 µM; TGI (HOP-92 NSCLC): 3.89 µM; GI50 (HL-60(TB) leukemia): 3.02 µM; TGI (HL-60(TB) leukemia): 12.5 µM

For `CCCCCn1sc(=O)n(Cc2ccc(CNC(=O)OCc3ccc4cccc(O)c4n3)cc2)c1=O`, which GI50 (SF-539 CNS) is on record?
The GI50 was 1.48 µM.

What about the TGI (SF-539 CNS) of the same compound?
Its TGI is 2.8 µM.

What about the GI50 (SN12C renal) of the same compound?
The GI50 was 1.49 µM.

What about the TGI (SN12C renal) of the same compound?
The TGI was 2.82 µM.

And the GI50 (COLO 205 colon)?
The GI50 was 1.59 µM.

And the TGI (COLO 205 colon)?
Its TGI is 3.75 µM.

What about the GI50 (EKVX NSCLC) of the same compound?
The GI50 was 2.01 µM.

What about the TGI (EKVX NSCLC) of the same compound?
The TGI was 5.41 µM.

And the GI50 (NCI-H522 lung)?
The GI50 was 1.07 µM.

What about the TGI (NCI-H522 lung) of the same compound?
Its TGI is 2.74 µM.

What about the GI50 (SK-MEL-2 melanoma) of the same compound?
The GI50 was 1.72 µM.

And the TGI (SK-MEL-2 melanoma)?
The TGI was 3.47 µM.

What about the GI50 (SNB-75 CNS) of the same compound?
Its GI50 is 1.14 µM.

And the TGI (SNB-75 CNS)?
The TGI was 4.52 µM.

What about the GI50 (UACC-62 melanoma) of the same compound?
Its GI50 is 1.51 µM.

What about the TGI (UACC-62 melanoma) of the same compound?
The TGI was 2.87 µM.

And the GI50 (HOP-92 NSCLC)?
The GI50 was 1.21 µM.

What about the TGI (HOP-92 NSCLC) of the same compound?
Its TGI is 2.97 µM.

What about the GI50 (HL-60(TB) leukemia) of the same compound?
Its GI50 is 2.88 µM.

And the TGI (HL-60(TB) leukemia)?
The TGI was > 100 µM.

`C/C1=C\[C@@H](O)C(=O)/C=C/C=C\c2csc(n2)[C@@H](C)NC(=O)C[C@@]2(CC1)S(=O)SC(=O)[C@]2(C)O` (stereo not given in full) was tested. Which TGI (SF-539 CNS) did it give?
Its TGI is 0.0495 µM and 0.023 µM.

What about the TGI (SN12C renal) of the same compound?
Its TGI is 0.0882 µM and 0.0192 µM.

And the TGI (COLO 205 colon)?
Its TGI is 0.0903 µM and 0.0418 µM.

And the TGI (EKVX NSCLC)?
The TGI was 0.612 µM.

And the TGI (NCI-H522 lung)?
The TGI was 0.0105 µM.

And the TGI (SK-MEL-2 melanoma)?
Its TGI is 0.0148 µM.

What about the TGI (SNB-75 CNS) of the same compound?
The TGI was 0.0995 µM and 0.0219 µM.

What about the TGI (UACC-62 melanoma) of the same compound?
The TGI was 0.0487 µM.

What about the TGI (HOP-92 NSCLC) of the same compound?
The TGI was 0.011 µM.

What about the TGI (HL-60(TB) leukemia) of the same compound?
Its TGI is 7.36 µM.

What does the source list for `Cc1cc(N(CCC#N)CCC#N)ccc1/C=C1/N=C(c2ccccc2)N(N)C1=O`?
TGI (SF-539 CNS): > 100 µM; TGI (SN12C renal): > 100 µM; TGI (COLO 205 colon): > 100 µM; TGI (EKVX NSCLC): > 100 µM; TGI (NCI-H522 lung): 92.1 µM; TGI (SK-MEL-2 melanoma): > 100 µM; TGI (SNB-75 CNS): 64.9 µM; TGI (UACC-62 melanoma): > 100 µM; TGI (HOP-92 NSCLC): 99.9 µM; TGI (HL-60(TB) leukemia): > 100 µM

For `COc1cc2nc(NCCCCCNC(=O)c3ccco3)nc(N)c2cc1OC`, which TGI (SF-539 CNS) is on record?
The TGI was 36.2 µM.

What about the TGI (SN12C renal) of the same compound?
The TGI was > 100 µM.

What about the TGI (COLO 205 colon) of the same compound?
Its TGI is 38.2 µM.

What about the TGI (EKVX NSCLC) of the same compound?
Its TGI is > 100 µM.

And the TGI (NCI-H522 lung)?
The TGI was 96.4 µM.

What about the TGI (SK-MEL-2 melanoma) of the same compound?
The TGI was 36.5 µM.

What about the TGI (SNB-75 CNS) of the same compound?
The TGI was 54.2 µM.

And the TGI (UACC-62 melanoma)?
Its TGI is 52.6 µM.

What about the TGI (HOP-92 NSCLC) of the same compound?
Its TGI is 42 µM.

What about the TGI (HL-60(TB) leukemia) of the same compound?
Its TGI is 43.3 µM.

Which results are given for `[N-]=[N+]=C1C(=O)C2CC3CC(C2)CC1C3`?
TGI (SF-539 CNS): > 100 µM; TGI (SN12C renal): > 100 µM; TGI (COLO 205 colon): > 100 µM; TGI (EKVX NSCLC): > 100 µM; TGI (NCI-H522 lung): > 100 µM; TGI (SK-MEL-2 melanoma): > 100 µM; TGI (SNB-75 CNS): > 100 µM; TGI (UACC-62 melanoma): > 100 µM; TGI (HOP-92 NSCLC): > 100 µM; TGI (HL-60(TB) leukemia): > 100 µM

How did the TGI (SF-539 CNS) turn out when `CN1COc2c(n(C)c(=O)[nH]c2=O)C1` was run?
The TGI was > 100 µM.

What about the TGI (SN12C renal) of the same compound?
The TGI was > 100 µM.

And the TGI (COLO 205 colon)?
Its TGI is > 100 µM.

And the TGI (EKVX NSCLC)?
Its TGI is > 100 µM.

What about the TGI (NCI-H522 lung) of the same compound?
The TGI was > 100 µM.

What about the TGI (SK-MEL-2 melanoma) of the same compound?
Its TGI is > 100 µM.

And the TGI (SNB-75 CNS)?
Its TGI is > 100 µM.

And the TGI (UACC-62 melanoma)?
The TGI was > 100 µM.

What about the TGI (HOP-92 NSCLC) of the same compound?
The TGI was > 100 µM.

And the TGI (HL-60(TB) leukemia)?
Its TGI is > 80.3 µM.

For `CCN1C(=O)N(CC)C2C1NN=c1s/c(=C\c3ccccc3Br)c(=O)n12` (stereo not given), which GI50 (SF-539 CNS) is on record?
Its GI50 is 0.0242 µM.

What about the TGI (SF-539 CNS) of the same compound?
The TGI was 0.382 µM.

And the GI50 (SN12C renal)?
Its GI50 is 0.0519 µM.

And the TGI (SN12C renal)?
The TGI was 31.2 µM.

And the GI50 (COLO 205 colon)?
Its GI50 is 0.03 µM.

And the TGI (COLO 205 colon)?
Its TGI is 0.118 µM.

What about the GI50 (EKVX NSCLC) of the same compound?
The GI50 was 0.317 µM.

And the TGI (EKVX NSCLC)?
Its TGI is > 70.7 µM.

And the GI50 (NCI-H522 lung)?
The GI50 was 0.019 µM.

And the TGI (NCI-H522 lung)?
Its TGI is 1.12 µM.

And the GI50 (SK-MEL-2 melanoma)?
The GI50 was 0.308 µM.

And the TGI (SK-MEL-2 melanoma)?
Its TGI is 25.5 µM.

And the GI50 (SNB-75 CNS)?
The GI50 was 0.0262 µM.

What about the TGI (SNB-75 CNS) of the same compound?
Its TGI is 2.22 µM.

And the GI50 (UACC-62 melanoma)?
Its GI50 is 0.278 µM.

What about the TGI (UACC-62 melanoma) of the same compound?
The TGI was 20.6 µM.

And the GI50 (HOP-92 NSCLC)?
The GI50 was 0.37 µM.

What about the TGI (HOP-92 NSCLC) of the same compound?
The TGI was 44.7 µM.

What about the GI50 (HL-60(TB) leukemia) of the same compound?
The GI50 was 0.0241 µM.

And the TGI (HL-60(TB) leukemia)?
Its TGI is 0.0639 µM.
